According to patent US12103919B2, “3-(5-oxy)-1-oxoisoindolin-2-yl)piperidine-2,6-dione derivatives and uses thereof” (NOVARTIS AG, priority 2021, dated 2024):
Where two headings read alike, the source gives them in different places.

Assays:
SALL4 = target: T1, SALL4 (Homo sapiens, UniProt Q96SW2+Q9UJQ4); test: Quantification of SALL4 protein levels in HiBiT tag fusion protein assay; format: cell-based; settings: for SALL4 Amax: DMSO-normalized, curve-fitted percentage of SALL4-HiBiT remaining at 50 uM, mean over repeats; for DC50: arithmatic mean over number of repeats, 18 hours, top 50 μM, read-out: SALL4 AC50
T1 construct: expressed in transfected cells; host or cells: GripTite 293 MSR cells (293GT), ThermoFisher Scientific, stably transfected by electroporation, blasticidin-selected clones
Protocol: The HiBiT system from Promega was used to develop high-throughput and quantitative assays to measure changes in SALL4 protein levels in response to compounds. The HiBiT tag was derived from a split Nanoluciferase and has the following protein sequence: […] (SEQ ID No: 1). The complementary fragment of Nanoluciferase (known as LgBiT, from Promega), was added to the HiBiT tag to form an active Nanoluciferase enzyme whose activity can be precisely measured. In this way, the levels of a fusion protein with the HiBiT tag can be quantified in cell lysates.
DNA constructs, based on the Invitrogen pLenti6.2/V5 DEST backbone, were constructed with the HiBiT tag upstream of SALL4 and expressed the fusion protein from a CMV promotor.
To ensure moderate and consistent expression of the HiBiT-SALL4 fusion protein across all cells in the population, stable cell lines were derived from clones. GripTite 293 MSR cells (293GT) from ThermoFisher Scientific (Catalog number: CRL-R79507), were stably transfected with prepared constructs via electroporation. Following recovery, cells were selected by 10 ug/mL blasticidin in culture media.
The levels of HiBiT-SALL4 tagged fusion proteins in compound-treated cell lines were measured as follows:
On day 1, cells were diluted to 1.0×10^6 cells/ml in normal growth medium. 20 μL of cell suspension were plated in each well of a solid white 384-well plate. Plates were incubated overnight in a 37° C. and 5% CO2 humidified tissue culture incubator.
On day 2, serial dilutions of compounds were made in 384-well plates. Compound plates were set up with DMSO in columns 1, 2, 23, 24, and 10-point compound dilution series in column 3-12 and column 13-22. 10 mM stock solution of compound were placed into column 3 or 13 and a 1:5 serial dilution was carried out until there was a 10-point dilution series per compound. 100 nL of diluted compounds were transferred into the plated cells by Echo® (Labcyte) acoustic transfer. The highest concentration of compound was 50 μM. Plates were incubated overnight (18 hours) in a 37° C. and 5% CO2 humidified tissue culture incubator.
On day 3, plates were removed from the incubator and allowed to equilibrate at room temperature for 60 minutes. HiBiT substrate (Nano-Glo® HiBit Lytic Detection System, Promega Catalogue number: N3050) was added as described by the manufacturers protocols. Plates were incubated at room temperature for 30 minutes and luminescence was read using an EnVision® reader (PerkinElmer®). Data was analyzed and visualized using the Spotfire® software package.
SALL4 Amax reflects the DMSO-normalized, curve-fitted percentage of SALL4-HiBiT remaining at 50 uM. It was calculated by normalizing DMSO controls to 100%, parametric curve fitting of the dose response data (10-point, 5-fold), followed by calculation of response at 50 uM using the fitted equation.
This assay produced a range of SALL4 AC50 and Amax values over several repeat runs due to normal variations in the assay. For a comparison to the compounds described in PCT/IB2020/062070, the arithmatic mean values are reported over the number of repeats specified. […] The compounds of the present disclosure are therefore expected to have improved toxicological properties (Matyskiela, M. E., Couto, S., Zheng, X. et al. SALL4 mediates teratogenicity as a thalidomide-dependent cereblon substrate. Nat Chem Biol 14, 981-987 (2018); Donovan, K. A. et al. Thalidomide promotes degradation of SALL4, a transcription factor Implicated in Duane Radial Ray syndrome. eLife 2018; 7:e38430).

Fetal Hemoglobin (HbF) = test: Small molecule HbF induction assay in erythroid-differentiated mPB CD34+ cells (flow cytometry); format: cell-based, human; settings: highest percentage of cells staining positive for HbF (% HbF+ cells) in fitted dose-response curve; DMSO baseline approximately 30-40%
Protocol: Cryopreserved primary human CD34^+ hematopoietic stem and progenitor cells were obtained from AllCeIIs, LLC. The CD34^+ cells were isolated from the peripheral blood of healthy donors after mobilization by administration of granulocyte colony-stimulating factor. Cells were differentiated ex vivo toward the erythroid lineage using a 2-phase culture method. In the first phase, cells were cultured in Stemspan™ Serum-Free Expansion Media (SFEM) ([…] Technologies Inc.) supplemented with rhSCF (50 ng/mL, Peprotech®, Inc.), rhlL-6 (50 ng/mL, Peprotech®, Inc.), rhlL-3 (50 ng/mL, Peprotech®, Inc.), and rhFlt3L (50 ng/mL, Peprotech®, Inc.), and 1× antibiotic-antimycotic (Life Technologies, Thermo Fisher Scientific) for 6 days at 37° C. with 5% CO2. During the second phase, cells were cultured in erythroid differentiation media at 5,000 cells/mL in the presence of compound for 7 days at 37° C. with 5% […]. Erythroid Differentiation Media is comprised of IMDM (Life Technologies) supplemented with insulin (10 μg/mL. Sigma Aldrich), heparin (2 U/mL Sigma Aldrich), holo-transferrin (330 μg/mL, Sigma Aldrich), human serum AB (5%, Sigma Aldrich), hydrocortisone (1 μM, […] Technologies), rhSCF (100 ng/mL, Peprotech®, Inc.), rhIL-3 (5 ng/mL. Peprotech®, Inc.), rhEPO (3 U/mL, Peprotech®, Inc.), and 1× antibiotic-antimycotic. All compounds were dissolved and diluted into dimethylsulfoxide (DMSO) and were added to culture media for a final concentration of 0.3% DMSO for testing in a 10-point, 1:3 dilution series starting at 10 uM.
For viability analysis, samples were washed and resuspended in phosphate-buffered saline (PBS) and stained with LlVE/DEAD™ Fixable Violet Dead Cell Stain Kit (Life Technologies, L34963) for 20 minutes. Cells were then washed again with PBS and resuspended in PBS supplemented with 2% fetal bovine serum (FBS), and 2 mM EDTA to prepare for cell surface marker analysis. […]
mPB CD34+ cells were expanded for 6 days, then erythroid differentiated in the presence of compound for 7 days. Cells were fixed, stained and analyzed by flow cytometry. […]

WIZ = target: T2, WIZ (Homo sapiens, UniProt O95785+Q96SW2); test: Quantification of WIZ protein levels in HiBit tag fusion protein assay (293T cells); format: cell-based; parameters: Dmax: dose or concentration left out as unconfirmed
T2 construct: expressed in transfected cells
Outline: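 293T cells stably carrying a single-copy HiBit-WIZ fusion were exposed to compounds for about 18 hours at 37° C., top concentration 25 μM, 10-point 5-fold series. Lysates were complemented with LgBit and luminescence was read. Amax is the DMSO-normalized, curve-fitted percentage of WIZ-HiBit remaining at 25 uM.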

T2 sequence (O95785 whole entry, the tested form may be a part): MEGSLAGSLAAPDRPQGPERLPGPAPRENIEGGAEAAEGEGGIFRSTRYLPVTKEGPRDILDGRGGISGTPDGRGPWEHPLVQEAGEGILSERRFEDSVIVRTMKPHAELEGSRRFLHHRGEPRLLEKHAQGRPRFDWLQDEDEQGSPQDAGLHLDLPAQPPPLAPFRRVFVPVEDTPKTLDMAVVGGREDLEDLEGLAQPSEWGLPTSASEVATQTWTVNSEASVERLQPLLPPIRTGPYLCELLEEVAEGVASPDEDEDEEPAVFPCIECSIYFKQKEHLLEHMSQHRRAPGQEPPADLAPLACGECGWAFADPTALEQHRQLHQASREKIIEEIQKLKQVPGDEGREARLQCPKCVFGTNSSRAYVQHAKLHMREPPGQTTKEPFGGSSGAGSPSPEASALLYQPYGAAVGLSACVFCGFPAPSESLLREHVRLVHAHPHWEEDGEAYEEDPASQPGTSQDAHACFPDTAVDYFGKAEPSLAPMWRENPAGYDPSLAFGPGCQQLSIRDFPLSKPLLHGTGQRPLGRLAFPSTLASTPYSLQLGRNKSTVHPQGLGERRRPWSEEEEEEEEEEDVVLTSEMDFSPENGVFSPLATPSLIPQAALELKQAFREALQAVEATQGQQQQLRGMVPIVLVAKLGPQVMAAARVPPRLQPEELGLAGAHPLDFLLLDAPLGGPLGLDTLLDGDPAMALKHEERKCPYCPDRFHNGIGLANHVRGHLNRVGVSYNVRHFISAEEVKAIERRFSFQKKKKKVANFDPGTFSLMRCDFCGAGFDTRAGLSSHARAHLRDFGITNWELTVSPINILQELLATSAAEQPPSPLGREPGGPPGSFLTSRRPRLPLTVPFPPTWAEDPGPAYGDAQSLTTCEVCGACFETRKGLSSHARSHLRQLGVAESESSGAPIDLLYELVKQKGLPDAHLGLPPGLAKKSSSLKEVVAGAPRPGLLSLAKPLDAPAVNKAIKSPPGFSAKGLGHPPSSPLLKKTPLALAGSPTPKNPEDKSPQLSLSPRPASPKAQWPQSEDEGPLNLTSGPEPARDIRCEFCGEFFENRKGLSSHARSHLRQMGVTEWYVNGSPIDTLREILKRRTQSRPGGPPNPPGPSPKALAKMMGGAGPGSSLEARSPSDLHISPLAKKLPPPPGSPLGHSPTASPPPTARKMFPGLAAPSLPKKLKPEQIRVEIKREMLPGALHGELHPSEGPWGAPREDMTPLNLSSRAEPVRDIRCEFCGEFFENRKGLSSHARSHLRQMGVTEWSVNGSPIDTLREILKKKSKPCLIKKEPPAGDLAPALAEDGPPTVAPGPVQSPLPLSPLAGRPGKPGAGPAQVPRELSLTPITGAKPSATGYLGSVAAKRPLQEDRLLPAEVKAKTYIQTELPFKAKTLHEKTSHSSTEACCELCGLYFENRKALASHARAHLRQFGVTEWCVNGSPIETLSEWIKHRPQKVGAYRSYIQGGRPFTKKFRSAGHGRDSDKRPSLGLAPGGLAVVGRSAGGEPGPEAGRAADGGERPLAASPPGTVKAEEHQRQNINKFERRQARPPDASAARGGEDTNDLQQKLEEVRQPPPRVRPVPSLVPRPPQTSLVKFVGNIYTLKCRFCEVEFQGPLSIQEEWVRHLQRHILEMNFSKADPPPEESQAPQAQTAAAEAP
T2 sequence (Q96SW2 whole entry, the tested form may be a part): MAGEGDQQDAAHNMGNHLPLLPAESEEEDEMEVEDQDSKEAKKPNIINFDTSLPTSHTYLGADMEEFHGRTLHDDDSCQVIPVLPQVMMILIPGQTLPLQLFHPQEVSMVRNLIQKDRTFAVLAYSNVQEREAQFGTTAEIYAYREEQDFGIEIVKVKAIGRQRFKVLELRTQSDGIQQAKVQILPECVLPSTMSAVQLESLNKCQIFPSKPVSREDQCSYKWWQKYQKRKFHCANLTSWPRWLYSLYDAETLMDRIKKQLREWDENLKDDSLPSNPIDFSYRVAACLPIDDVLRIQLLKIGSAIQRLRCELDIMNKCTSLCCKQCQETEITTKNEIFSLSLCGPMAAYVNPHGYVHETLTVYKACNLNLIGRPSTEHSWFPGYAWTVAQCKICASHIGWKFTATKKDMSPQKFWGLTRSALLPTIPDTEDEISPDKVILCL
T2 sequence (Q16531 whole entry partner, the tested form may be a part): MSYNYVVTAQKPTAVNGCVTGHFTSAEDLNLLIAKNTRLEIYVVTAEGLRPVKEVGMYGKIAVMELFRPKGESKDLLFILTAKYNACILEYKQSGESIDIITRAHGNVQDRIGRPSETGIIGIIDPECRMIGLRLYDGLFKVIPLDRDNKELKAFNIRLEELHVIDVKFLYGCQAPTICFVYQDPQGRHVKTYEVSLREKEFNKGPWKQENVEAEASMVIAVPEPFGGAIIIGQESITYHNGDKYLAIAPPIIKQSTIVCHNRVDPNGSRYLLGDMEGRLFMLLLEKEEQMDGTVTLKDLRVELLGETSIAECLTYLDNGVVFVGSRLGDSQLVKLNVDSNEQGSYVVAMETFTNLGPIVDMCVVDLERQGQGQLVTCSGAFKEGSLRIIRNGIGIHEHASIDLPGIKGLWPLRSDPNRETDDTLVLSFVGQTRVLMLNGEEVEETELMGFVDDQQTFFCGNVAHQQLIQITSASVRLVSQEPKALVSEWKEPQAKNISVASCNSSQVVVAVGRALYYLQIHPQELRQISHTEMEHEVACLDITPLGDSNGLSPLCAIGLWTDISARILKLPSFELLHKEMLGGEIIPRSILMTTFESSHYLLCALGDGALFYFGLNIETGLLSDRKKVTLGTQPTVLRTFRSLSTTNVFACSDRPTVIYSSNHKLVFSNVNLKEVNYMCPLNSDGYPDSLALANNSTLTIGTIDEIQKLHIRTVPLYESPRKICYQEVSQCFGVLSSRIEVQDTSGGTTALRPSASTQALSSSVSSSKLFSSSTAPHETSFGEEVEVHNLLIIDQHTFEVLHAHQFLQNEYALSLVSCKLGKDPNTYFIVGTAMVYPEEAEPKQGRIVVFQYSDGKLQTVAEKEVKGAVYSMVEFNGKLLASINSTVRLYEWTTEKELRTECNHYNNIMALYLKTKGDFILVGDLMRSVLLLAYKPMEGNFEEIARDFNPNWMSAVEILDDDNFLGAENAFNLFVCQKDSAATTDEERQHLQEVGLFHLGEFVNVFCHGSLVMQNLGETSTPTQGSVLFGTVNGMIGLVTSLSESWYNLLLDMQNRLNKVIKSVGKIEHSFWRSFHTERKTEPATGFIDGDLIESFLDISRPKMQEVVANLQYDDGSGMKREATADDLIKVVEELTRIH
T1 sequence (Q9UJQ4 whole entry, the tested form may be a part): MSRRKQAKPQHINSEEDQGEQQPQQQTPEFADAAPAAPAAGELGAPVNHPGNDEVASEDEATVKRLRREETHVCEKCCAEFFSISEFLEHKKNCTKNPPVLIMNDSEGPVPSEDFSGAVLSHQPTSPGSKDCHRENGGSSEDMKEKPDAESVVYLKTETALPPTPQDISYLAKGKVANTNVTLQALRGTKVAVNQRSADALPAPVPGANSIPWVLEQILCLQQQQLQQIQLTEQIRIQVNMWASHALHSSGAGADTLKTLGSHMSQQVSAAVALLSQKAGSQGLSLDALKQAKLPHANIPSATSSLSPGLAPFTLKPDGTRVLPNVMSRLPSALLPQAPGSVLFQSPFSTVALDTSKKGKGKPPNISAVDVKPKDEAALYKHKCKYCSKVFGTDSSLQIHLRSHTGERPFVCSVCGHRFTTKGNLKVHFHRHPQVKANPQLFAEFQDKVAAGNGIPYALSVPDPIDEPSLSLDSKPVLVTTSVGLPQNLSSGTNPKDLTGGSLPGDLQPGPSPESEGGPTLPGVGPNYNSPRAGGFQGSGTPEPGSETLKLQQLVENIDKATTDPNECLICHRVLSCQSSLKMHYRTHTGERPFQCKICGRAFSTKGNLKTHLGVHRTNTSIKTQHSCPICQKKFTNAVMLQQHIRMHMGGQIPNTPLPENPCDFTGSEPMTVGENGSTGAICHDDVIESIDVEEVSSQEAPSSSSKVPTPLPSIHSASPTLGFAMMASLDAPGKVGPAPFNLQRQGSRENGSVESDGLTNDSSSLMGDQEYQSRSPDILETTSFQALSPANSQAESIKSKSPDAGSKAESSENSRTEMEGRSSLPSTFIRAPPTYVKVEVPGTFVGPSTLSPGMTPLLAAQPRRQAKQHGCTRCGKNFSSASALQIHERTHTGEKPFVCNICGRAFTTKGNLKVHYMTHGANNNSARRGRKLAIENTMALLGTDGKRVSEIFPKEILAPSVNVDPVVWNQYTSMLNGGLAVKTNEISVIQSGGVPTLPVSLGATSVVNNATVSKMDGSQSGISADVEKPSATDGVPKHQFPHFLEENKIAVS
T1 sequence (Q96SW2 whole entry, the tested form may be a part): as the sequence (Q96SW2 whole entry, the tested form may be a part) above
T1 sequence (Q16531 whole entry partner, the tested form may be a part): as the sequence (Q16531 whole entry partner, the tested form may be a part) above

SMILES | SALL4 Amax (SALL4) | DC50 (SALL4) | HbF Amax (Fetal Hemoglobin (HbF)) | remaining activity at 25 µM (WIZ; HEK-293T; DMSO-normalized, curve-fitted percentage of WIZ-HiBit remaining at 25 uM; read-out: WIZ Amax) | Dmax at 25 µM (WIZ; HEK-293T; at 25 uM, 100 − Amax; read-out: % degradation of WIZ (100 − Amax)) | DC50 (WIZ; WIZ HiBit assay in 293T cells, about 18 hours, 10-point 5-fold dilution, top 25 μM; read-out: WIZ AC50) | DC50 (WIZ; updated arithmatic mean over the number of repeats specified, assay of Example 89; read-out: WIZ AC50) | Dmax (WIZ; HEK-293T, read-out: % degradation of WIZ (100 − Amax)) | remaining activity at 25 µM (WIZ; HEK-293T, read-out: WIZ Amax) | DC50 (WIZ; read-out: WIZ AC50; WIZ HiBit assay in 293T cells, about 18 hours, 10-point 5-fold dilution, top 25 μM)
CCN1CCCC[C@@H]1COc1ccc2c(c1)CN(C1CCC(=O)NC1=O)C2=O (mixture of isomers) [Comparative Example 1, 3-(5-(((R)-1-ethylpiperidin-2-yl)methoxy)-1-oxoisoindolin-2-yl)piperidine-2,6-dione, reference compound] | 51.51% | 0.16 µM | 64.1% | – | – | – | – | – | – | –
O=C1CCC(N2Cc3cc(OC[C@H]4CCCCN4CC4CC4)ccc3C2=O)C(=O)N1 (stereo partly drawn) [Comparative Example 3, 3-(5-(((R)-1-(cyclopropylmethyl)piperidin-2-yl)methoxy)-1-oxoisoindolin-2-yl)piperidine-2,6-dione, reference compound] | 52.88% | 0.13 µM | – | – | – | – | – | – | – | –
O=C1CCC(N2Cc3cc(O[C@@H]4CCCN(CC5CC5)C4)ccc3C2=O)C(=O)N1 (stereo partly drawn) [Example 13, 3-(5-(((R)-1-(cyclopropylmethyl)piperidin-3-yl)oxy)-1-oxoisoindolin-2-yl)piperidine-2,6-dione] | 70.82% | 0.14 µM | – | 27.6% | 72.4% | 0.014 µM | 0.021 µM | – | – | –
CCN1C[C@H](Oc2ccc3c(c2)CN(C2CCC(=O)NC2=O)C3=O)CC[C@@H]1C (stereo partly drawn) [Example 41, 3-(5-(((3R,6S)-1-ethyl-6-methylpiperidin-3-yl)oxy)-1-oxoisoindolin-2-yl)piperidine-2,6-dione] | – | – | 73.1% | – | – | – | – | 88.6% | 11.4% | 0.00014 µM
